Values quoted from earlier work in patent US7189722B2, “Aryl spirohydantoin CGRP receptor antagonists” (Merck & Co., Inc., priority 2003, dated 2007).
Like-named read-outs stand apart in the source and are kept apart here. Ends that are not written are not given here.

How the values were obtained:
facial blood flow [1] = conditions: marmoset, electrical stimulation of the trigeminal ganglion (Doods et al. 2000)
facial blood flow [2] = conditions: rat, trigeminal ganglion stimulation (Escott et al. 1995)
[3] = system: middle meningeal artery diameter; conditions: rats, electrical stimulation of the dura mater, prior administration (Williamson et al. 1997)

Compound: NCCCC[C@H](NC(=O)[C@@H](Cc1cc(Br)c(O)c(Br)c1)NC(=O)N1CCC(N2Cc3ccccc3NC2=O)CC1)C(=O)N1CCN(c2ccncc2)CC1 [BIBN4096BS]
- effect on increase of facial blood flow (facial blood flow [1]): blocked

Compound: CGRP(8-37): a peptide CGRP antagonist (VTHRLAGLLSRSGGVVKNNFVPTNVGSKAF; ends and bridges not checked; UniProt P06881 90-119, looked up, fragment)
- effect on increase of facial blood flow (facial blood flow [2]): inhibited
- effect on increase of middle meningeal artery diameter [3]: blocked
